Reference: patent publication US20130065226A1, “METHOD OF DETERMINING DOSE AND ADMINISTRATION OF STATIN” (TOHOKU UNIVERSITY, priority 2011, published 2013)
Where a SMILES comes first, the peptide text is derived from it. The star is where a group is joined. Cbz = O=C(OCc1ccccc1)*

Key:
[1] = system: Racl; experiment: Protein expression in HUVEC subcellular fractions: Racl (with or without proteasome inhibitor MG-132)
[2] = system: AngII-induced production of ROS in HUVEC; experiment: Reactive oxygen species analysis (DCF staining) in siRNA-transfected HUVEC; type: cell-based, human; conditions: atorvastatin 1 μM or pitavastatin 0.1 μM 24 h, then 1 μM AngII 3 h
Protocol: (§1) An AngII-induced cardiovascular hypertrophy model in mice was produced according to Yagi et al.'s literature (Yagi, S. et al., Circ. Res. 102, 68-76 (2008)). Statins were administered to mice by gavage every day for 2 weeks. After 2 weeks of sustained AngII administration by means of osmotic pump, the present inventors observed the left ventricular function and measured the weight of the heart of each mouse by means of an ultrasound imaging system. […] After a 2 weeks washout period, the subjects were switched to take an alternative medicine for additional 2 weeks.
(§2) Multiple siRNAs duplexes specific to SmgGDS were purchased from Qiagen. A functional non-targeting siRNA that was bioinformatically designed by Qiagen was used as a control. Either 10 nM control siRNA or 10 nM siRNA that was specific to SmgGDS was transfected into HUVEC with HiPerFect transfection Reagent (Qiagen). After 72 hour post-transfection, the cells were analyzed by either Wester blot or ROS analysis.
The present inventors treated HUVEC with AngII (1μM, Wako) at 37° C. in 5% CO2 for 3 hours, washed them with PBS and stained them with 2,7-dichlorofluoroscein diacetate (H2DCF-DA) (5 μM, Cayman) at 37° C. for 30 minutes to visualize the ROS production as green fluorescence (488 nm) through a fluorescence microscope (BIOREVO, Keyence). The relative fluorescence intensity was measured by means of BZ-II analyzer (Keyence) software.

[3] = system: SmgGDS; experiment: Protein expression in HUVEC subcellular fractions: SmgGDS; type: cell-based, human; conditions: HUVEC cytoplasm fraction, 24 h; atorvastatin 10 μM, pitavastatin 1 μM
[4] = system: SmgGDS; experiment: SmgGDS expression in HUVEC after 24 h drug treatment (western blot); type: cell-based, human; conditions: for SmgGDS expression level in HUVEC: 24 h treatment, atorvastatin 10 and 30 μM, pitavastatin 1 and 10 μM
[5] = Body weight, blood pressure and plasma lipid profiles in AngII-infused mice; type: in vivo; conditions: ATOR 10 mpk, PRA 50 mpk; for Systolic blood pressure / HDL cholesterol / LDL-cholesterol / Total cholesterol / Triglyceride: 2 weeks; for Systolic blood pressure / Body weight: mean ± s.e.m.; for Body weight: gavage daily 2 weeks; for HDL cholesterol / LDL-cholesterol / Total cholesterol / Triglyceride: plasma
Protocol: as §1
The present inventors conducted all mouse experiments in accordance with experimental protocols that were approved by the Animal Care and Use Committee of the Tohoku University Graduate School of Medicine. The present inventors used an AngII-induced cardiovascular hypertrophy model (see Yagi, S . et al . , Circ. Res. 102. 68-76 (2008)) to assess the effect of SmgGDS deficiency on the pleiotropic effects of low-dose statins. The present inventors infused 2.0 mg kg^−1 day^−1 or saline for 2 weeks in 10-week-old male SmgGDS^+/+ littermate control mice and SmgGDS^+/− mice. The inventors dissolved AngII in sterile saline and infused it via osmotic mini-pumps (Alzet model 2002, Alze Corp.). The inventors anesthetized the animals with isofluorane. Then, the inventors prepared subcutaneous pockets in the isofluorane-anesthetized mice and placed the pumps into the subcutaneous pockets through a small incision in the back that was closed by suturing. Either statin or vehicle was administered to both the AngII-infused and saline-infused mouse by gavage every day for 2 weeks . All incision sites rapidly healed without any infection. Systolic blood pressure was measured by using a non-invasive tail-cuff system (MK-2000, Muromachi) 2 weeks after the pump implantation. Plasma lipids (triglycerides, total cholesterol, LDL-cholesterol and HDL-cholesterol) were analyzed with the high-performance liquid chromatography system of Skylight Biotech. Echocardiographic analysis was performed by using an ultrasound imaging system (Vevo 2100, VisualSonic Inc.). The mice were shaved and M-mode images of the left ventricle were recorded while the heart rate was kept at about 500 bpm.

[6] = system: SmgGDS; experiment: Human study: SmgGDS expression in circulating leukocytes (western blot); type: in vivo
Description: (§3) The exclusion criteria included abnormal liver or kidney dysfunction before and during the statin administration and treatment.

[7] = system: RhoA/Rho-kinase; conditions: normal and healthy volunteers, 20 mg day^−1 for 1 week; cited from earlier work
[8] = Human study: plasma lipid profiles, glucose, insulin and HOMA-IR; type: in vivo
Description: as §3

[9] = system: Racl; experiment: Racl expression in control or SmgGDS siRNA-transfected HUVEC; type: cell-based, human; conditions: control siRNA-transfected HUVEC, statin 24 h
Protocol: as §1, §2

[10] = system: Racl; conditions: normal and healthy volunteers, 20 mg day^−1 for 1 week; cited from earlier work
[11] = control siRNA-transfected HUVEC
[12] = healthy volunteers, 20 mg day^−1, after 2 weeks vs baseline
[13] = healthy volunteers, fasting, 20 mg day^−1 oral, 2 weeks

SMILES: O=C(O)C[C@H](O)C[C@H](O)/C=C/c1c(C2CC2)nc2ccccc2c1-c1ccc(F)cc1 [pitavastatin]
- intra-nuclear Racl level ([1]; HUVEC nucleus fraction, 24 h, atorvastatin 10 μM, pitavastatin 1 μM): decreased the intra-nuclear Racl level
- AngII-induced production of ROS ([2]; SmgGDS siRNA-transfected HUVEC): The same results were also obtained
- AngII-induced production of ROS [2, 11]: The same results were also obtained
- cytoplasmic SmgGDS level [3]: increased the cytoplasmic SmgGDS level
- SmgGDS expression level in HUVEC [4]: increased SmgGDS expression in HUVEC in a concentration-dependent manner

SMILES: CC(C)C[C@@H](C=O)NC(=O)[C@H](CC(C)C)NC(=O)[C@H](CC(C)C)NC(=O)OCc1ccccc1 [MG-132] (Cbz-Leu-Leu-Leu-aldehyde)
- effect of MG-132 on statin-triggered decrease of Racl expression in the nucleus ([1]; HUVEC co-treated with atorvastatin and MG-132): inhibited the decreased Racl expression level triggered by atorvastatin in the nucleus

SMILES: CC(C)c1c(C(=O)Nc2ccccc2)c(-c2ccccc2)c(-c2ccc(F)cc2)n1CC[C@@H](O)C[C@@H](O)CC(=O)O [atorvastatin]
- Systolic blood pressure ([5]; AngII-infused SmgGDS+/+ mice): 146.7 ± 7.6 mmHg
- Body weight ([5]; AngII-infused SmgGDS+/+ mice): 27.5 ± 1.1 g
- Systolic blood pressure ([5]; AngII-infused SmgGDS+/− mice): 140.4 ± 4.4 mmHg
- Body weight ([5]; AngII-infused SmgGDS+/− mice): 26.9 ± 0.5 g
- HDL cholesterol ([5]; AngII-infused SmgGDS+/+ mice): 76.3 ± 6.8 mg/dL
- LDL-cholesterol ([5]; AngII-infused SmgGDS+/+ mice): 13.7 ± 1.6 mg/dL
- Total cholesterol ([5]; AngII-infused SmgGDS+/+ mice): 98.3 ± 7.7 mg/dL
- Triglyceride ([5]; AngII-infused SmgGDS+/+ mice): 67.0 ± 11.0 mg/dL
- HDL cholesterol ([5]; AngII-infused SmgGDS+/− mice): 81.9 ± 4.8 mg/dL
- LDL-cholesterol ([5]; AngII-infused SmgGDS+/− mice): 13.6 ± 1.8 mg/dL
- Total cholesterol ([5]; AngII-infused SmgGDS+/− mice): 102.3 ± 6.9 mg/dL
- Triglyceride ([5]; AngII-infused SmgGDS+/− mice): 81.4 ± 20.1 mg/dL
- SmgGDS expression in leukocytes in circulating blood ([6]; healthy volunteers, 20 mg day^−1, 2 weeks, vs pre-administration level, n=20): significantly increased
- increase of SmgGDS in leukocytes, average of the 20 volunteers ([6]; healthy volunteers, 20 mg, 2 weeks, vs before administration): about 1.5 times
- increase in SmgGDS ([6]; the 4 volunteers without increase at 10 mg pravastatin, after switching from pravastatin to atorvastatin): 3 volunteers out of the above 4 volunteers showed an increase of SmgGDS
- RhoA/Rho-kinase activity in circulating leucocytes [7]: without suppressing the RhoA/Rho-kinase activity
- HDL-cholesterol, Change (%) [8, 12]: 0%
- LDL-cholesterol, Change (%) [8, 12]: −46%
- MDA-LDL, Change (%) [8, 12]: −38%
- RLP cholesterol, Change (%) [8, 12]: −35%
- Total cholesterol, Change (%) [8, 12]: −30%
- Triglyceride, Change (%) [8, 12]: −33%
- HDL-cholesterol, After 2 weeks [8, 13]: 60 ± 2.7 mg/dL
- LDL-cholesterol, After 2 weeks [8, 13]: 64 ± 3.4 mg/dL
- MDA-LDL, After 2 weeks [8, 13]: 73 ± 4.5 U l^−1
- RLP cholesterol, After 2 weeks [8, 13]: 2.6 ± 0.1 mg/dL
- Triglyceride, After 2 weeks [8, 13]: 73 ± 6.5 mg/dL
- Total cholesterol, After 2 weeks ([8]; healthy volunteers, fasting, 20 mg day^−1 oral, 2 weeks, mean ± s.e.m., n = 20): 138 ± 3.8 mg/dL
- concentration level of total cholesterol and of LDL-cholesterol in blood ([8]; normal healthy adult volunteers, 20 mg day^−1 oral, 2 weeks): reduced the concentration level of total cholesterol and that of LDL-cholesterol in blood
- Racl expression level in whole cells [9]: decreased Racl expression level in whole cells
- Racl activity in circulating leucocytes [10]: significantly inhibit Racl activity
- AngII-induced production of ROS [2, 11]: decreased the AngII-induced production of ROS
- cytoplasmic SmgGDS level [3]: increased the cytoplasmic SmgGDS level
- SmgGDS expression level in HUVEC [4]: increased SmgGDS expression in HUVEC in a concentration-dependent manner

SMILES: CC(C)=CCC/C(C)=C/CC/C(C)=C/CC/C(C)=C/COP(=O)(O)OP(=O)(O)O [GGPP, geranylgeranyl pyrophosphate]
- inhibition of the statin-induced increase in SmgGDS expression level ([4]; FPP or GGPP 10 μM co-treated with atorvastatin or pitavastatin, 24 h): neither FPP nor GGPP inhibited the increase in SmgGDS expression level by statins
